Source: a melting point compilation (Tetko et al.; mined from patent text by program, amines drawn as free bases though some values may be those of a salt)

Compound | melting point
COc1cnc2sc(S(=O)(=O)Cc3ccccc3)nn2c1=O | 204 to 206 °C
Cc1c(C2(c3cccs3)CCC(c3ccccc3)(N(C)C)CC2)[nH]c2ccccc12 (centres undefined) | 202 to 205 °C
COc1cccc(C(=O)NCCc2ccc(-c3ccc(OC(C)(C)C(=O)O)cc3)cc2)c1OC | 184 °C
COc1ccccc1OCCN(Cc1ccccc1)C(=O)CCc1c[nH]c2ccccc12 | 46.5 to 47.5 °C
CCCCCCCCOc1ccc(-n2nc3ccc(C(F)(F)F)cc3n2)c(O)c1 | 79 to 81 °C
COc1cc2c(cc1OC)CC(=O)N(CCCN(C)C[C@H]1Cc3cc(OC)c(OC)cc31)CC2 | 98 to 100 °C
COc1ccc(CSc2nc(O)cc(C(F)(F)F)n2)cc1 | 169 to 170 °C
CC(C)N(CCN1C(=O)/C(=N/NC(N)=O)c2ccc(Cl)cc21)C(C)C | 205 to 208 °C
CCc1ccc(C(=O)c2cccc(F)c2)c(O)c1 | 0 to 20 °C
Cn1c(C(=O)O)c(Br)c2cc(OCc3ccccc3)ccc21 | 210 °C
CC(C)CC(=O)Nc1c(C(N)=O)nnn1Cc1ccccc1 | 181 to 182 °C
Nc1nc(N)c(CCCNc2ccc(C(=O)N[C@@H](CCC(=O)O)C(=O)O)cc2)c(=O)[nH]1 | 195 to 200 °C
Cc1ccc(S(=O)(=O)N2CCCC2c2ccccc2)cc1 (racemic) | 109 °C
COc1ccc(CNc2nc(N3CCC[C@H]3CO)ncc2C(=O)NCc2ncccn2)cc1Cl | 160 to 163 °C
CCCN(CCC)Cc1cnc(-c2ncn3c2CN(C)C(=O)c2cc(F)ccc2-3)o1 | 123 to 125 °C
COc1cc(Nc2nccc(-c3ccc(N)cc3)n2)cc(OC)c1OC | 195 °C
Nc1sc2c(c1C(=O)c1ccc(OCc3ccccc3)cc1)CCN(C(=O)OCc1ccccc1)C2 | 151 to 152 °C
CC1CN(C2=NC(=O)C(=Cc3cccc(-c4cc(F)c(O)c(C56CC7CC(CC(C7)C5)C6)c4)c3)S2)CC(C)O1 (centres undefined) | 262 to 264 °C
CS(=O)(=O)Nc1ccc(C(=O)CN(Cc2ccccc2)Cc2ccccc2)cc1 | 131 to 134 °C
COc1cccc(Oc2c(NS(=O)(=O)c3ccc(C(C)(C)C)cc3)ncnc2OCc2ccccn2)c1 | 206 to 208 °C
COCC1CN(c2ccc3cc(OCCS(C)=O)ccc3c2)C(=O)O1 (centres undefined) | 133 to 141 °C
COc1cccc2c1CC[C@@H](O)[C@@H]2N1CCCC1 (relative stereo) | 113 to 115 °C
COC(=O)c1cc2c([nH]c1=O)CCCCCC2 | 220 to 224 °C
CCCCc1nc(C(O)(C(C)C)C(C)C)c(C(N)=O)n1Cc1ccc(-c2ccccc2C(=O)O)cc1 | 178 to 181 °C
CCc1ccc(C(=O)O)c2ccccc12 | 125 to 127 °C

Compound | melting point
CS(=O)(=O)c1ccc(-c2sc(-c3ccccc3Cl)nc2-c2ccccc2Cl)cc1 | 143 to 147 °C
Cc1sc2cc(C3=NCCS3)[nH]c2c1N(C)S(=O)(=O)c1cccs1 | 140 °C
COc1ccc(C(=O)Nc2ccc3ccc(Br)nc3n2)cc1 | 221 °C
CC(CO)c1ccc(-c2ccccc2F)c(F)c1 (centres undefined) | 80 to 82.5 °C
C=CCCOC[C@H]1CC[C@H](c2ccc(C#N)cc2)CC1 | 12.7 °C
CCN(C)C(=O)Nc1cc(C(C)(C)C)on1 | 88.5 to 89.5 °C
CCCCCCCC(=O)c1ccc(CCC(C)(CCOC(C)=O)NC(C)=O)cc1 (centres undefined) | 83 to 84 °C
COc1ccnc(CCc2nc3ccc(OC)nc3[nH]2)c1 | 93 to 95 °C
Brc1ccc(-c2nc(COc3ccc(CCCn4ccnc4)cc3)co2)o1 | 115 to 116 °C
CCCCCCCCCOC1C(O)C(CO)OC1n1cnc2c(N)ncnc21 (centres undefined) | 143 to 144 °C
COc1ncc(S(C)(=O)=O)cc1CCC(=O)c1ccc(Cl)c(Cl)c1 | 145 to 146 °C
CN(Cc1cccc(-c2ccc(CC3SC(=O)NC3=O)cc2)c1)C(=O)c1cccnc1 (centres undefined) | 115 °C
COc1ccc(CN(CCN(C)CCCNC(=NCCCOc2cccc(CN3CCCCC3)c2)NC#N)c2ccccn2)cc1 | 62 to 65 °C
COC1=C(OC)C(=O)C(CCCCCCc2ccc(O)cc2)=C(C)C1=O | 87 to 88 °C
CC1(C)NC(=O)N(CC(CS(=O)(=O)c2ccc(-c3ccc(OC(F)(F)F)cc3)cc2)N(O)C=O)C1=O (centres undefined) | 195 to 197 °C
COC(=O)c1ccc(Cl)cc1NC(=O)CSc1ccc(N)cc1 | 145 to 147 °C
Cc1ccc2c(c1)NC(=O)c1cscc1O2 | 209 to 213 °C
CC(=NNc1ccccc1[N+](=O)[O-])c1ccccn1 | 145 to 146 °C
O=C(O)CC=CCC(=O)NCCc1ccccc1 | 101 to 103 °C
O=C(O)c1cc2c(Cl)ccc(Br)c2s1 | > 300 °C
CCc1c(-c2ccc(OCc3ccccc3)cc2)c2c(CO)cc3c(OCc4ccccc4)ccc1n32 | 133 to 134 °C
O=C(Nc1nc(-c2ccccc2)cs1)c1ccccc1C(c1ccc(O)cc1)c1ccc(O)cc1 | 291 to 292 °C
CCOC(=O)CCC(=O)Nc1cc(OC)c(OC)cc1C(=O)OCC | 125 °C
Cc1cc(Br)ccc1S(N)(=O)=O | 179 to 180 °C
